The results in this text go back to ChEMBL document CHEMBL4619790, “Design and Development of a Macrocyclic Series Targeting Phosphoinositide 3-Kinase δ” (ACS Med Chem Lett, 2020).

Series [1] can be described thus: Unbound clearance in iv dosed rat. The series is classed as ADME, organism-based. To be noted: in vivo.
The nature of series [2]: Half life in iv dosed rat. The series is classed as ADME, organism-based. To be noted: in vivo.
Series [3] can be described thus: Clearance in iv dosed rat. To be noted: in vivo. The series is classed as ADME, organism-based.
The nature of series [4]: Permeability of the compound by PAMPA. The series is classed as ADME. To be noted: read-out: permeability. (PAMPA measures passive passage across an artificial lipid membrane.)
Series [5] can be described thus: Dissociation constant, pKa of compound. The format is physicochemical.
Series [6] is described as follows: Lipophilicity, log D of the compound at pH 7.4 by chromatographic method. The series is classed as physicochemical. To be noted: buffer.
The nature of series [7]: Stability in minipig Hepatocyte assessed as clearance. The series is classed as ADME, cell-based, Sus scrofa. To be noted: pig, hepatocytes; read-out: CLH.
Series [8] can be described thus: Stability in minipig microsomes assessed as clearance. The format is ADME, Sus scrofa, Microsome. To be noted: pig.
A short description of series [9]: Solubility of the compound by CLND method. The series is classed as physicochemical.
Series [10] is described as follows: Volume of distribution at steady state in iv dosed rat. The format is ADME, organism-based. To be noted: in vivo, read-out: Vdss.

In general, half-life refers to the time in which the quantity being followed falls by half. A higher half-life goes with slow decline. A word on the clearance: it is the rate of elimination divided by the concentration. Higher therefore signals efficient removal. The pKa is the pH at which an ionisable group is half protonated. A lower pKa goes with a group that gives up its proton readily. For orientation: chromatographic logD means lipophilicity estimated from chromatographic retention. What is called kinetic solubility is solubility judged after dilution from a stock solution rather than from solid.

In turn, `COc1ncc2cc1NS(=O)(=O)CCN(C)Cc1ccc3c(c1)N2CCO3` yielded a CL free in series [1] of 192 mL/min/kg. The same molecule showed a half-life in series [2] of 1.5 h. Also, in series [3], the clearance turned out to be 12.3 mL/min/kg. Also, the Papp in series [4] came to 53 ×10⁻⁶ cm/s. In series [5], this molecule returned a pKa of 5.7. Also, the chromatographic logD in [6] stood at 4.3. Besides, the CLint scaled in series [7] was below 0.89 mL/min/kg; in series [8] it was 0.92 mL/min/kg. Further, in series [9], the kinetic solubility is at least 331 µM. Besides, the Vd in series [10] was found to be 1.8 L/kg.
Consider `COc1ncc(N2CCOc3ccc(CN(C)C)cc32)cc1NS(C)(=O)=O`, for which, in series [1], the CL free came to 587 mL/min/kg. In addition, the half-life in [2] was 0.6 h. The clearance in series [3] is 233 mL/min/kg. Moreover, the Papp in series [4] came to 14 ×10⁻⁶ cm/s. In series [5], the pKa came to 9.4. This molecule also gave a chromatographic logD in series [6] of 1.6. For the same molecule, the CLint scaled is below 0.89 mL/min/kg in [7] and 1.63 mL/min/kg in series [8]. The molecule also came in with a solubility (kinetic) in series [9] of at least 406 µM. Besides, the Vd in series [10] amounted to 8.5 L/kg.
